Publication PMC6832932, “Design and Selection of Novel C1s Inhibitors by In Silico and In Vitro Approaches” (Molecules, 2019)
Like-named read-outs stand apart in the source and are kept apart here.

Tests used:
C1s [1] = biological target: T1, C1s (Homo sapiens, UniProt P09871); settings: ref Subasinghe et al, 2004 [5]; read-out: Ki (C1s, thiopheneamidine inhibitors); cited from earlier work
T1 construct: Recombinant C1s and C1r fragments (CCP1-CCP2-SP, the γB catalytic region); made in house
T1 sequence (P09871 438-688 limits assumed): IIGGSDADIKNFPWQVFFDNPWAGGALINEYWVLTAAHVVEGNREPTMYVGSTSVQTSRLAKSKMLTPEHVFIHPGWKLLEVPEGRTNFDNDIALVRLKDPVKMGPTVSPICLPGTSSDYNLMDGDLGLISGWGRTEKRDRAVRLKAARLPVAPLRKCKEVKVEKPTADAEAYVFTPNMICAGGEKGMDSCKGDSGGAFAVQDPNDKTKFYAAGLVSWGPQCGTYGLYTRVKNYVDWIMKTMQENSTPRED

C1s [2] = biological target: T1, C1s; settings: cited from earlier work
Human isolated Factor Xa = biological target: T2, Human isolated Factor Xa (Homo sapiens, UniProt P00742); experiment: Factor Xa activity assay (fluorescent substrate Boc-Leu-Gly-Arg-AMC); format: biochemical; settings: for remaining activity at 10 µM: 10 µM compound
T2 construct: purchased ThermoFisher Scientific (Waltham, MA, USA)
T2 sequence (P00742 235-488 limits assumed): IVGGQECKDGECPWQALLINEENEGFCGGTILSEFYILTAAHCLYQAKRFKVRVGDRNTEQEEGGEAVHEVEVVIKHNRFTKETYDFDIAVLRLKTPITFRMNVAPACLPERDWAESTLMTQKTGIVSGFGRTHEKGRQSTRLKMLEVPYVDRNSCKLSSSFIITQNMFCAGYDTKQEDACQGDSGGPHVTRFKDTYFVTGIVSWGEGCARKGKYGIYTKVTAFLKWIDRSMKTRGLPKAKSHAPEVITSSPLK
T2 sequence (P00742 41-179 partner limits assumed): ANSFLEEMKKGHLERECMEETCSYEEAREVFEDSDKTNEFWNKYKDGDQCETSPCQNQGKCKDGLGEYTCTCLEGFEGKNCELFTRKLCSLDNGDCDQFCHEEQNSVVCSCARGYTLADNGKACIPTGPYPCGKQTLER
Protocol: Human isolated Factor Xa protein was purchased from ThermoFisher Scientific (Waltham, MA, USA). An end-point assay was carried out using the fluorescent amide substrate Boc-Leu-Gly-Arg-AMC used for C1s 10 µM screen; assay conditions: 20 mM HEPES (pH 7,8) 100 mM NaCl, 10 mM CaCl2 30 °C, 0.05% TWEEN-20, 1% DMSO; low enzyme concentration (about 1 nM); in a 96 well microplate format (in 100 µL), using non-binding black plates (Greiner).

C1s [3] = biological target: T1, C1s; experiment: C1s inhibition IC50 assay (thioester substrate Z-Lys-SBzl with DTNB, photometric); format: biochemical; settings: read-out: IC50 C1s
Text: (§1) Recombinant C1s and C1r fragments (CCP1-CCP2-SP, the γB catalytic region) containing the serine protease domain were expressed in E. Coli BL21(DE3)pLysS host strain (transformed with pET-17b vector) in form of inclusion bodies; proteins were isolated, renatured and purified as published earlier. Recombinant C1s, isolated in intact proenzyme form, was activated by limited proteolysis using the recombinant, autoactivated C1r fragment. Activated C1s and C1r were separated using Q Sepharose HP (Amersham Biosciences, Little Chalfont, UK) anion exchange chromatography.
40 µL enzyme + 10 µL inhibitor compounds were incubated (10 min, RT), and 50 µL substrate solution (1 mM final concentration) was added; incubated for 45 min and finally absorbance was read (405 nm) with a Perkin Elmer Wallac 1420 Victor2 microplate reader.

C1s [4] = biological target: T1, C1s; experiment: C1s focused library screening (fluorescent substrate Boc-Leu-Gly-Arg-AMC, 10 µM); format: biochemical
Text: as §1
Two end-point assays have been developed for C1s inhibition assays: For screening assays a specific, fluorescent amide substrate Boc-Leu-Gly-Arg-AMC (Sigma, St. Louis, MO, USA), representing the cleavage site sequence of C2 was used with relatively high enzyme concentration (0.2 µM). Assay conditions: 20 mM HEPES (pH 7.4), 200 mM NaCl, 0.05% Tween20, 1% DMSO; 384 microplate format; 10 µL enzyme + 10 µL inhibitor compounds (final concentration: 10 µM); incubation time and temperature: 10 min, RT; then 20 µL substrate solution was added (1 mM final concentration); incubated (45 min, 30 °C) and the fluorescence have been read (355/460 nm; Wallac 1420 Victor2 microplate reader, Perkin Elmer, Waltham, MA, USA).

[5] = 1 mM Z-Lys-SBzl, enzyme below 1 nM
[6] = 1 mM ZLysSBzl, Figure S1 curves
[7] = 1 mM Z-Lys-SBzl, text and Figure S1

Row | remaining activity at 10 µM (Human isolated Factor Xa) [%] | IC50 (C1s [3]; [5]) [nM] | SMILES | Ki (C1s [1]) [nM] | other results
1 | – | – | CSc1sc(C(=N)N)cc1-c1nc(-c2cnn(-c3ccccc3)c2OCC2CCC2)cs1 [CHEMBL102835] | 530 | –
2 | – | – | COc1cccc(-c2csc(-c3cc(C(=N)N)sc3SC)n2)c1 [CHEMBL29205] | 470 | –
3 | – | – | O=C(c1ccc2c(c1)OCO2)C1C2C(=O)N(c3ccc4c(c3)OCCO4)C(=O)C2C2c3ccccc3C=CN12 (stereo not shown) [4,257,399] | – | IC50 (C1s [2]; ref PubChem, read-out: IC50 C1s): 880 nM
4 | – | – | CSc1sc(C(=N)N)cc1-c1ncc(-c2ccccc2)s1 [CHEMBL322672] | 3250 | –
5 | – | – | CCCc1c(-c2csc(-c3cc(C(=N)N)sc3SC)n2)cnn1C [CHEMBL318576] | 330 | –
6 | – | – | CCCOc1c(-c2csc(-c3cc(C(=N)N)sc3SC)n2)cnn1-c1ccccn1 [CHEMBL317917] | 70 | –
7 | 86.2 | 1300 | CC(C)(C)c1ccc(C(=O)n2nnc3ccccc32)cc1 [Entry 4] | – | –
8 | 82 | 6700 | O=c1oc(-c2ccco2)nc2ccc(Cl)cc12 [Entry 15] | – | IC50 (C1s [3]; [6]): 6680 nM
9 | – | – | CSc1sc(C(=N)N)cc1-c1nc(-c2cccs2)cs1 [CHEMBL31549] | 700 | –
10 | – | – | CSc1sc(C(=N)N)cc1-c1nc(-c2ccccc2)cs1 [CHEMBL281899] | 560 | –
11 | – | – | CSc1sc(C(=N)N)cc1-c1nc(-c2cnn(-c3ccccc3)c2)cs1 [CHEMBL322834] | 150 | –
12 | – | – | CSc1sc(C(=N)N)cc1-c1nc(-c2ccc([N+](=O)[O-])cc2)cs1 [CHEMBL29006] | 1000 | –
13 | – | – | CSc1sc(C(=N)N)cc1-c1nc(-c2ccccc2C)cs1 [CHEMBL28949] | 850 | –
14 | 85.4 | 2400 | CCOC(=O)CSc1nc(-c2cccnc2)nn1C(=O)c1ccccc1 [Entry 12] | – | –
15 | – | ~50000 | Cc1ccc(-c2nc3sc(C)c(C)c3c(=O)o2)cc1 [Entry 20] | – | –
16 | – | – | CSc1sc(C(=N)N)cc1-c1nc(-c2cnccc2Cl)cs1 [CHEMBL28723] | 870 | –
17 | – | – | CSc1sc(C(=N)N)cc1-c1nc(-c2ccc(Cl)cc2Cl)cs1 [CHEMBL285142] | 3000 | –
18 | – | – | CCc1sc(C(=N)N)cc1-c1nc(-c2ccccc2)cs1 [CHEMBL441273] | 3000 | –
19 | – | – | CSc1nc(-c2ccco2)nn1C(=O)c1ccco1 [7 965 558] | – | IC50 (C1s [2]; seed compounds for 2D similarity search, ref PubChem [9],[10], read-out: IC50 (seed compounds)): 4480 nM
20 | – | – | CSc1sc(C(=N)N)cc1-c1nc(-c2ccc(Cl)cc2)cs1 [CHEMBL286243] | 436 | –
21 | 30.3 | 83 | CCOc1ccc(C(=O)n2nnc3ccccc32)cc1 [Entry 1] | – | IC50 (C1s [3]; [7]): 83.3 nM
22 | 78.1 | 44 | CSc1nc(-c2ccco2)nn1C(=O)c1ccc(F)cc1 [Entry 10] | – | IC50 (C1s [3]; [7]): 43.6 nM

Row | remaining activity at 10 µM (Human isolated Factor Xa) [%] | IC50 (C1s [3]; [5]) [nM] | SMILES | Ki (C1s [1]) [nM] | other results
23 | – | – | CSc1sc(C(=N)N)cc1-c1nc(-c2cccc(C)c2)cs1 [CHEMBL286498] | 960 | –
24 | 43.1 | 91 | CC(=O)Nc1ccc(C(=O)n2nnc3ccccc32)cc1 [Entry 2] | – | IC50 (C1s [3]; [7]): 90.8 nM
25 | – | – | CCSc1sc(C(=N)N)cc1-c1nc(-c2ccccc2)cs1 [CHEMBL105102] | > 20000 | –
26 | – | – | CSc1sc(C(=N)N)cc1-c1nc(C2CCCCC2)cs1 [CHEMBL283859] | 4700 | –
27 | – | – | CCOc1c(-c2csc(-c3cc(C(=N)N)sc3SC)n2)cnn1-c1ccccc1 [CHEMBL321341] | 90 | –
28 | – | – | CSc1sc(C(=N)N)cc1-c1nc(Cc2ccccc2)cs1 [CHEMBL29269] | 1060 | –
29 | 76.5 | 5900 | CCN(CC)c1ccc(C(=O)n2nnc3ccccc32)cc1 [Entry 8] | – | –
30 | – | – | CS(=O)(=O)c1sc(C(=N)N)cc1-c1nc(-c2ccccc2)cs1 [CHEMBL105652] | > 28000 | –
31 | 100 | 549 | Cc1sc2nc(-c3ccco3)oc(=O)c2c1C [Entry 17] | – | C1s inhibitory activity as reported in ChEMBL and PubChem (in words) (C1s [2]; ref [9]): inactive
32 | – | – | CSc1sc(C(=N)N)cc1-c1nc(-c2ccc(-c3ccccc3)cc2)cs1 [CHEMBL418023] | 15400 | –
33 | – | – | CSc1sc(C(=N)N)cc1-c1nc(-c2ccc(C)cc2)cs1 [CHEMBL29304] | 420 | –
34 | – | – | CSc1sc(C(=N)N)cc1-c1nc(-c2ccc(Cl)c([N+](=O)[O-])c2)cs1 [CHEMBL413764] | 860 | –
35 | 92.3 | 2160 | O=C(c1ccc(F)c(F)c1)n1nnc2ccccc21 [Entry 6] | – | –
36 | 53.6 | 241 | O=c1nc(-c2cccs2)oc2cc(Cl)ccc12 [Entry 21] | – | IC50 (C1s [3]; [6]): 240 nM
37 | 98.6 | 474 | O=c1oc(-c2ccco2)nc2cc(Cl)ccc12 [Entry 13] | – | –
38 | – | 41000 | Cc1cccc2c(=O)nc(-c3ccco3)oc12 [Entry 23] | – | –
39 | 4.93 | 240 | COc1cc(SC)ccc1C(=O)n1nnc2ccccc21 [Entry 3] | – | –
40 | 77.6 | 29000 | CC(=O)Oc1ccc2nc(-c3ccco3)oc(=O)c2c1 [Entry 16] | – | –
41 | 61.4 | 6440 | COc1cc2nc(-c3ccco3)oc(=O)c2cc1OC [Entry 14] | – | –
42 | – | – | CSc1sc(C(=N)N)cc1-c1nc(-c2csc3ccccc23)cs1 [CHEMBL28875] | 450 | –
43 | – | – | CSc1sc(C(=N)N)cc1-c1nc(COc2ccccc2)cs1 [CHEMBL287292] | 520 | –
44 | – | – | CSc1sc(C(=N)N)cc1-c1nc(-c2cnn(-c3ccccc3)c2OCCC(C)C)cs1 [CHEMBL101698] | 1500 | –

Row | remaining activity at 10 µM (Human isolated Factor Xa) [%] | IC50 (C1s [3]; [5]) [nM] | SMILES | Ki (C1s [1]) [nM] | other results
45 | 48.3 | 1850 | COc1ccc(C(=O)n2nnc3ccccc32)cc1OC [Entry 5] | – | –
46 | 2.39 | 12 | COc1ccccc1C(=O)n1nc(-c2ccco2)nc1SC [Entry 9] | – | IC50 (Human isolated Factor Xa; 500 µM Boc-Leu-Gly-Arg-AMC): 1250 nM; IC50 (C1s [3]; [7]): 11.6 nM
47 | 46.1 | 845 | Cc1cc2c(=O)oc(-c3ccccc3Br)nc2s1 [Entry 18] | – | IC50 (C1s [3]; [6]): 846 nM
48 | – | – | COc1ccccc1-c1csc(-c2cc(C(=N)N)sc2SC)n1 [CHEMBL283080] | 850 | –
49 | – | – | COc1ccc(-c2csc(-c3cc(C(=N)N)sc3SC)n2)c(OC)c1 [CHEMBL286267] | 640 | –
50 | 0.14 | 3600 | O=c1nc(-c2ccco2)oc2ccc(Cl)cc12 [Entry 22] | – | –
51 | 26 | 94 | CSc1nc(-c2ccco2)nn1C(=O)c1ccccc1 [Entry 11] | – | IC50 (C1s [3]; [7]): 93.6 nM
52 | – | ~20000 | Cc1sc2nc(-c3ccccc3)oc(=O)c2c1C [Entry 19] | – | –
53 | – | – | CSc1sc(C(=N)N)cc1-c1nc(-c2ccc3ccccc3c2)cs1 [CHEMBL29290] | 490 | –
54 | – | – | COc1ccc(-c2csc(-c3cc(C(=N)N)sc3SC)n2)cc1 [CHEMBL28618] | 900 | –
55 | – | – | Cc1sc(C(=N)N)cc1-c1nc(-c2ccccc2)cs1 [CHEMBL106071] | 6000 | –
56 | 92.1 | 3870 | O=C(c1ccc(-c2ccccc2)cc1)n1nnc2ccccc21 [Entry 7] | – | –
57 | – | – | O=C(c1ccc(C(=O)n2nnc3ccccc32)cc1)n1nnc2ccccc21 [1-[4-(1,2,3-benzotriazole-1-carbonyl)benzoyl]-1,2,3-benzotriazole] | – | C1s inhibitory activity (in words) (C1s [4]): inactive
58 | – | – | N=C(N)c1cc(-c2nc(-c3ccccc3)cs2)cs1 [CHEMBL321519] | > 20000 | –
59 | – | – | CCCc1nn(C)cc1-c1csc(-c2cc(C(=N)N)sc2SC)n1 [CHEMBL106388] | 190 | –
60 | – | – | CSc1sc(C(=N)N)cc1-c1nc(-c2cccnc2Cl)cs1 [CHEMBL285818] | 1020 | –
61 | – | – | N=C(N)c1cc(-c2nc(-c3ccccc3)cs2)c(C(F)(F)F)s1 [CHEMBL103840] | 12500 | –
62 | – | – | COc1sc(C(=N)N)cc1-c1nc(-c2ccccc2)cs1 [CHEMBL322207] | 14400 | –
63 | – | – | N=C(N)c1cc(-c2nc(-c3ccccc3)cs2)c(SCc2ccccc2)s1 [CHEMBL104368] | > 20000 | –
64 | – | – | CSc1sc(C(=N)N)cc1-c1nc(-c2cnn(C)c2)cs1 [CHEMBL102417] | 460 | –
